From the NIST ThermoML archive (doi:10.1016/j.jct.2007.01.010)

Tests used:
[1] = xn = mol fraction of the nth substance listed; conditions: 101 kPa, Liquid
[2] = 101 kPa, Liquid

CCOCCOCCO [3,6-dioxa-1-octanol] + CCOC(C)(C)C
viscosity [mPa·s], [1]
Conditions	293.15 K	298.15 K	303.15 K
x2 = 0	4.464	3.976	3.531
x2 = 0.05	3.992	3.574	3.192
x2 = 0.1	3.505	3.156	2.836
x2 = 0.1501	3.037	2.746	2.49
x2 = 0.2	2.637	2.398	2.183
x2 = 0.2498	2.289	2.093	1.912
x2 = 0.2999	1.991	1.828	1.683
x2 = 0.3497	1.744	1.605	1.48
x2 = 0.3999	1.526	1.413	1.312
x2 = 0.4502	1.343	1.245	1.16
x2 = 0.5002	1.184	1.103	1.03
x2 = 0.55	1.049	0.979	0.918
x2 = 0.5997	0.932	0.872	0.82
x2 = 0.6504	0.832	0.78	0.736
x2 = 0.7003	0.749	0.704	0.667
x2 = 0.7503	0.682	0.643	0.611
x2 = 0.7998	0.63	0.596	0.568
x2 = 0.8498	0.591	0.562	0.536
x2 = 0.9	0.563	0.536	0.512
x2 = 0.95	0.545	0.519	0.495

CCOC(C)(C)C [2-ethoxy-2-methylpropane] + CCOCCOCCO
[1], x1 = 1
Conditions	viscosity [mPa·s]
293.15 K	0.532
298.15 K	0.504
303.15 K	0.478

CCOC(C)(C)C [2-ethoxy-2-methylpropane]
[2]
Conditions	viscosity [mPa·s]
293.15 K	0.532
298.15 K	0.504
303.15 K	0.478

CCOCCO [2-ethoxyethan-1-ol]
[2]
Conditions	viscosity [mPa·s]
293.15 K	2.142
298.15 K	1.848
303.15 K	1.646

CCOCCOCCO [3,6-dioxa-1-octanol]
[2]
Conditions	viscosity [mPa·s]
293.15 K	4.464
298.15 K	3.976
303.15 K	3.531

CCOCCOCCOCCO [2-(2-(2-ethoxyethoxy)ethoxy)ethanol]
[2]
Conditions	viscosity [mPa·s]
293.15 K	8.087
298.15 K	7.049
303.15 K	6.421

CCOC(C)(C)C [2-ethoxy-2-methylpropane] + CCOCCO
viscosity [mPa·s], [1]
Conditions	293.15 K	298.15 K	303.15 K
x1 = 0.05	1.943	1.691	1.515
x1 = 0.1001	1.766	1.547	1.394
x1 = 0.1489	1.619	1.424	1.286
x1 = 0.2002	1.476	1.306	1.184
x1 = 0.2511	1.35	1.203	1.094
x1 = 0.2999	1.242	1.113	1.017
x1 = 0.3486	1.146	1.031	0.947
x1 = 0.4	1.057	0.955	0.879
x1 = 0.4511	0.977	0.887	0.82
x1 = 0.5	0.908	0.829	0.769
x1 = 0.5502	0.845	0.775	0.721
x1 = 0.5999	0.791	0.729	0.679
x1 = 0.652	0.74	0.685	0.64
x1 = 0.6999	0.699	0.649	0.608
x1 = 0.7499	0.66	0.616	0.578
x1 = 0.8	0.626	0.586	0.552
x1 = 0.8505	0.597	0.56	0.528
x1 = 0.9	0.571	0.538	0.508
x1 = 0.9499	0.549	0.519	0.492
x1 = 1	0.532	0.504	0.478

CCOCCOCCOCCO [2-(2-(2-ethoxyethoxy)ethoxy)ethanol] + CCOC(C)(C)C
viscosity [mPa·s], [1]
Conditions	293.15 K	298.15 K	303.15 K
x2 = 0	8.087	7.049	6.421
x2 = 0.0501	6.804	5.991	5.485
x2 = 0.0996	5.742	5.091	4.685
x2 = 0.1502	4.816	4.304	3.982
x2 = 0.1999	4.042	3.643	3.389
x2 = 0.2502	3.391	3.076	2.874
x2 = 0.3005	2.841	2.597	2.437
x2 = 0.3506	2.383	2.195	2.067
x2 = 0.4	2.008	1.863	1.759
x2 = 0.4502	1.692	1.582	1.495
x2 = 0.5	1.435	1.351	1.278
x2 = 0.55	1.225	1.16	1.096
x2 = 0.5955	1.067	1.013	0.959
x2 = 0.6498	0.915	0.873	0.824
x2 = 0.7	0.804	0.77	0.727
x2 = 0.7502	0.714	0.689	0.654
x2 = 0.7982	0.647	0.628	0.598
x2 = 0.8491	0.593	0.581	0.555
x2 = 0.9	0.555	0.549	0.524
x2 = 0.95	0.533	0.528	0.502

CCOCCO [2-ethoxyethan-1-ol] + CCOC(C)(C)C
[1], x2 = 0
Conditions	viscosity [mPa·s]
293.15 K	2.142
298.15 K	1.848
303.15 K	1.646

CCOC(C)(C)C [2-ethoxy-2-methylpropane] + CCOCCOCCOCCO
[1], x1 = 1
Conditions	viscosity [mPa·s]
293.15 K	0.532
298.15 K	0.504
303.15 K	0.478
